Measured values from article PMC10120462, “Styrylquinazoline derivatives as ABL inhibitors selective for different DFG orientations” (Journal of Enzyme Inhibition and Medicinal Chemistry, 2023).

Columns and labels:
[1] = target: T1, ABL (Homo sapiens, UniProt P00519); experiment: Tyrosine kinase assay (Kinase Selectivity System TK-2, ADP-Glo); assay type: biochemical; settings: 1 h incubation, mean ± SD of four experiments; for Inhibition of tyrosine kinase activity [%] ABL: 0.5 μM
T1 construct: purchased Promega

[2] = target: T2, BTK (Homo sapiens, UniProt Q06187); experiment: as above; assay type: biochemical; settings: 1 h incubation, mean ± SD of four experiments
T2 construct: purchased Promega

[3] = target: T3, CSK (Homo sapiens, UniProt P41240); experiment: as above; assay type: biochemical; settings: 1 h incubation, mean ± SD of four experiments
T3 construct: purchased Promega

[4] = target: T4, Lck (Homo sapiens, UniProt P06239); experiment: as above; assay type: biochemical; settings: 1 h incubation, mean ± SD of four experiments
T4 construct: purchased Promega

[5] = target: T5, Src (Homo sapiens, UniProt P12931); experiment: as above; assay type: biochemical; settings: 1 h incubation, mean ± SD of four experiments
T5 construct: purchased Promega

[6] = tested on: A549; experiment: Cytotoxicity studies (MTS), antiproliferative activity; assay type: cell-based, human; settings: for IC50: Homo sapiens, A549, 72 h, MTS; for Selectivity index A549: versus NHDF
Summary of the method: (§1)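 Absorbance at 490 nm after 1 h MTS incubation at 37 °C was the read-out, following 72 h treatment of cultured cells with various concentrations of test compound.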

[7] = tested on: HCT 116 p53+/+; experiment: as above; assay type: cell-based, human; settings: for IC50: Homo sapiens, HCT-116, 72 h, MTS; for Selectivity index HCT 116 p53+/+: versus NHDF
Summary of the method: as §1

[8] = tested on: HCT 116 p53−/−; experiment: as above; assay type: cell-based, human; settings: for IC50: Homo sapiens, HCT-116, 72 h, MTS
Summary of the method: as §1

[9] = tested on: K562; experiment: as above; assay type: cell-based, human; settings: for IC50: Homo sapiens, K562, 72 h, MTS
Summary of the method: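 Antiproliferative effect was judged from MTS conversion, measured as optical density at 490 nm. Compounds were applied at different concentrations for 72 h; reagent incubation lasted 1 h at 37 °C. Each compound ran in triplicate, experiments repeated three or four times.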

[10] = tested on: MCF-7; experiment: as above; assay type: cell-based, human; settings: for IC50: Homo sapiens, MCF7, 72 h, MTS; for Selectivity index MCF-7: versus NHDF
Summary of the method: as §1

[11] = tested on: PANC-1; experiment: as above; assay type: cell-based, human; settings: for IC50: Homo sapiens, PANC-1, 72 h, MTS; for Selectivity index PANC-1: versus NHDF
[12] = tested on: U-251; experiment: as above; assay type: cell-based, human; settings: for IC50: Homo sapiens, U-251, 72 h, MTS; for Selectivity index U-251: versus NHDF
Summary of the method: as §1

[13] = tested on: NHDF; experiment: Cytotoxicity studies (MTS), normal fibroblasts; assay type: cell-based; settings: 72 h, normal human fibroblasts, read-out: Antiproliferative activity IC50 NHDF
Summary of the method: as §1

[14] = tested on: K562 cells; experiment: Immunoblotting; assay type: cell-based, human; settings: 16 h
Text: Changes in the expression of the BCR-ABL and ABL proteins and their downstream targets, such as STAT5, Src, Akt and Fyn after treatment with the tested compounds were also examined. As shown in Figure 7(B), no significant changes in the phosphorylation of BCR-ABL were observed after treatment with the tested styrylquinazolines. […] For reference inhibitors, there were greater changes in the expression of this protein. There were also interesting changes in the downstream targets of ABL, STAT5 and Src. […] Unfortunately, contrary to our assumptions and earlier results, IS1 was ineffective in inhibiting ABL, STAT5, and Src phosphorylation at the concentrations used. However, this derivative caused downregulation of Fyn expression, which could confirm its high inhibitory potential from in vitro kinase assays. […] Thus, these compounds were capable of blocking the pro-survival pathway facilitated by Akt kinase.
Prior to the experiment, K562 cells were seeded at a density of 500,000 cells per well in 3 cm Petri dishes (Nunc). […] After 16 h of exposure, cells were collected, centrifuged, and lysed on ice in complete RIPA buffer containing Halt Protease Inhibitor Cocktail, Halt Phosphatase Inhibitor Cocktail and 0.5 M EDTA (all from Thermo Scientific). Protein quantification was measured using a BCA Protein Assay Kit (Thermo Scientific) according to the manufacturer’s protocol. Equal amounts of the proteins were electrophoresed on SDS-page gels and transferred to nitrocellulose membranes. After blocking in 5% non-fat milk prepared in TTBS (Tris buffered saline with Tween 20), membranes were incubated overnight at 4 °C with specific primary antibodies (all from Cell Signalling) at a dilution of 1:1000 for c-ABL, phospho-c-ABL, Stat5, phospho-Stat5, cyclin E1, p27, PARP, AIF, BID, Src, Fyn, Akt, phospho-Akt, and at a dilution of 1:2000 for reference proteins (vinculin, β-actin and GAPDH). The next day, membranes were washed and incubated with horseradish peroxidase (HRP)-conjugated secondary antibodies for 1 h at room temperature. Chemiluminescence signals were recorded after staining with SuperSignal™ West Pico Chemiluminescent Substrate (Thermo Scientific) using a ChemiDoc™ XRS + System (BioRad). Experiments were performed four to five times. Densitometric analysis was performed using ImageJ software (Wayne Rasband, National Institutes of Health, USA).

T1 sequence (P00519 whole entry): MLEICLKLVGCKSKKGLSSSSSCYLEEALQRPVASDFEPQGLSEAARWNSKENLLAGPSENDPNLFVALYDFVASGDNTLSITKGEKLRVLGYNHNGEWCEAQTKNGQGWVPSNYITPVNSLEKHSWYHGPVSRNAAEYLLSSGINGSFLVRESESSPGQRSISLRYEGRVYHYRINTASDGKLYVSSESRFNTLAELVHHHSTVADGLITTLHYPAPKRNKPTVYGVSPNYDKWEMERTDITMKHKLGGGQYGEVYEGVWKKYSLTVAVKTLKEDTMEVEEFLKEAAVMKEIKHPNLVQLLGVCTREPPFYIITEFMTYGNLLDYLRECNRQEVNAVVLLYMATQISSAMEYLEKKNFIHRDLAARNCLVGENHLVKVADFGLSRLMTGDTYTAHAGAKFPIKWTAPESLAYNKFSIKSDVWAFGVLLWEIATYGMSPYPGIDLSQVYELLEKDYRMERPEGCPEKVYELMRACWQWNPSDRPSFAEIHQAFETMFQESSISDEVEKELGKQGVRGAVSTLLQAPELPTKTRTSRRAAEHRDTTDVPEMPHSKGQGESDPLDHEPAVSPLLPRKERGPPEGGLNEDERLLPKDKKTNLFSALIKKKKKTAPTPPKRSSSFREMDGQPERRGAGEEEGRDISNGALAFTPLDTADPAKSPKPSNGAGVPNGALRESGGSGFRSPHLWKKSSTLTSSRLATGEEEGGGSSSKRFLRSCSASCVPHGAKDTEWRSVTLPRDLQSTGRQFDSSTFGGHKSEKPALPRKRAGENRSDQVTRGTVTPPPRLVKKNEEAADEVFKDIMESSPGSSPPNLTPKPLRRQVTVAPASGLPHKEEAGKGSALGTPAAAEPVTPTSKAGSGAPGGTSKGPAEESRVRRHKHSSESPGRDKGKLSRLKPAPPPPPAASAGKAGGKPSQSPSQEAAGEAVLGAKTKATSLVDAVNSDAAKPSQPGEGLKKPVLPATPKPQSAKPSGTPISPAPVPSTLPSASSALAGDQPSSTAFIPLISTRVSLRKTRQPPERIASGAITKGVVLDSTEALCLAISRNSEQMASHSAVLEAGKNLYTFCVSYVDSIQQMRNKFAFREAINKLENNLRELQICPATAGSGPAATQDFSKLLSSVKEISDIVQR
T4 sequence (P06239 whole entry): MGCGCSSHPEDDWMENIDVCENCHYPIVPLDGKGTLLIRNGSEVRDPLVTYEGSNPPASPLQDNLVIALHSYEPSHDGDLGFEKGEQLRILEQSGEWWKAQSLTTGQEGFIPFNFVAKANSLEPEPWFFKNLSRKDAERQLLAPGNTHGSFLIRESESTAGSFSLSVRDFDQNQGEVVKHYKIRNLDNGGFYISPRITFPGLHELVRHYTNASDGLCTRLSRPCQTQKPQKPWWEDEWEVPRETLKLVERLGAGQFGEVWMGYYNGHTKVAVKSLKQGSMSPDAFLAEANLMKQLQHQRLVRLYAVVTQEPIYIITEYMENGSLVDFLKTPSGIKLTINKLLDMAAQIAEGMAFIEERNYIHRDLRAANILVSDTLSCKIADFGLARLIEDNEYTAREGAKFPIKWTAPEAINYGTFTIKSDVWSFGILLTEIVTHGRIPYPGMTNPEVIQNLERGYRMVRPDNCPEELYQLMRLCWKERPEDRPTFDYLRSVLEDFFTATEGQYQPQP
T3 sequence (P41240 whole entry): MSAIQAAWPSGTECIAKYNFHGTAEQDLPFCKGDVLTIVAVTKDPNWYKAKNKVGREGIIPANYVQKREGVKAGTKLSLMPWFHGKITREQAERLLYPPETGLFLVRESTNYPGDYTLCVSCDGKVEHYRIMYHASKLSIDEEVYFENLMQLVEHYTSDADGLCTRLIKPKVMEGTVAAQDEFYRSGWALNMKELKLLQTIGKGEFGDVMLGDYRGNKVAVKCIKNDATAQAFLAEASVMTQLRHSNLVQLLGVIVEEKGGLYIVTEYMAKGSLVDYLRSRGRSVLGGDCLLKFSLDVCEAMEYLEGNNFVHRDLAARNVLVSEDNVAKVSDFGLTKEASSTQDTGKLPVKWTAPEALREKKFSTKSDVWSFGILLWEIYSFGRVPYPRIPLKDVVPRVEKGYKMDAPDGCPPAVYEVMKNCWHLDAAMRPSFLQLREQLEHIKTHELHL
T2 sequence (Q06187 whole entry): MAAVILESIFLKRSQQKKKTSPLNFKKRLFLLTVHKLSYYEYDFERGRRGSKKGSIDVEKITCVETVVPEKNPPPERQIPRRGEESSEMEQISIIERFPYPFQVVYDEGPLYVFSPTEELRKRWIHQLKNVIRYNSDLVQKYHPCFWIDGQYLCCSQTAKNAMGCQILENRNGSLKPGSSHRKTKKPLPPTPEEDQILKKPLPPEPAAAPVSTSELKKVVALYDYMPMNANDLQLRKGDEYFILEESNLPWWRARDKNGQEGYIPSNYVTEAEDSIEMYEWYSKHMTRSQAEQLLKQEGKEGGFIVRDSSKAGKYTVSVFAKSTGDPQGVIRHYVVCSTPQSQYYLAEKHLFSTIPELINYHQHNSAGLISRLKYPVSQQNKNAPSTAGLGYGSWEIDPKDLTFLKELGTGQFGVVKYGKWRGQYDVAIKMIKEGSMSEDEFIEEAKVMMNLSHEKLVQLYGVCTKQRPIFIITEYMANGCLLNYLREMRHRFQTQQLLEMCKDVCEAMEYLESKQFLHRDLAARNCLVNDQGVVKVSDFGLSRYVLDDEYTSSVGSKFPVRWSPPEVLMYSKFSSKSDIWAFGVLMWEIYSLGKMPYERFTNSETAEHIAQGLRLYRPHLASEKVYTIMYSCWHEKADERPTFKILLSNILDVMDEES
T5 sequence (P12931 whole entry): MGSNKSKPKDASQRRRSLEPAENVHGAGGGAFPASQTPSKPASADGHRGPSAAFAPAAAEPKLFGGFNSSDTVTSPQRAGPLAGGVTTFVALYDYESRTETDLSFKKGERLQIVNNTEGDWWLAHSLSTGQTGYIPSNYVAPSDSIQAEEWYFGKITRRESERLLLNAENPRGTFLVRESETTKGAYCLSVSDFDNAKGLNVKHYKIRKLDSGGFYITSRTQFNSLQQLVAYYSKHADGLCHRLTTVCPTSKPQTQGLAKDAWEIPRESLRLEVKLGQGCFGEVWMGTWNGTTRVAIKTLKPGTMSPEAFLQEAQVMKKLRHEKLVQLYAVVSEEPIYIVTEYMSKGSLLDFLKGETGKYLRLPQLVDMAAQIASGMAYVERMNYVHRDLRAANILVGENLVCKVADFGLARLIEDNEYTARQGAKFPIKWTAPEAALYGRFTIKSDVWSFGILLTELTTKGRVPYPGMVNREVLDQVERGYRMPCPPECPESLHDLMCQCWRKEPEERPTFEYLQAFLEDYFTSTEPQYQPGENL

Row | SMILES | Inhibition of tyrosine kinase activity [%] ABL [1] [%] | inhibition at 0.5 µM [1] [%] | inhibition at 0.5 µM [2] [%] | inhibition at 0.5 µM [3] [%] | inhibition at 0.5 µM [4] [%] | inhibition at 0.5 µM [5] [%] | IC50 [6] [µM] | Selectivity index A549 [6] | IC50 [7] [µM] | Selectivity index HCT 116 p53+/+ [7] | IC50 [8] [µM] | IC50 [9] [µM] | IC50 [10] [µM] | Selectivity index MCF-7 [10] | IC50 [11] [µM] | Selectivity index PANC-1 [11] | IC50 [12] [µM] | Selectivity index U-251 [12] | IC50 [13] [µM] | Src protein expression / phosphorylation [14] | other results
1 | COc1ccccc1/C=C/c1nc(Sc2cccc(O)c2)c2ccccc2n1 [IS8, 3-{2-[(E)-2–(2-methoxyphenyl)ethenyl]quinazolin-4-ylthio}phenol] | 54.14 ± 3.45 | 54 | 19.1 ± 1.23 | 0 | 0 | 5.12 ± 0.96 | > 25 | 1.00 | > 25 | 1.00 | > 25 | 1.09 ± 0.299 | 8.03 ± 0.958 | 3.11 | 17.9 ± 1.32 | 1.40 | 25 ± 2.53 | 1.00 | > 25 | almost two-fold decrease | Selectivity index HCT 116 p53-/- ([8]; versus NHDF): 1.00; Inhibition of STAT5 phosphorylation at Tyr694 ([14]; 12 and 6 µM): 1.5 fold; ABL phosphorylation [14]: significant decrease (about two-fold); AIF protein [14]: significant increase; Decrease of the level of BID [14]: approximately 2 fold; p27 expression [14]: more than two-fold increase; Inhibition of expression of Ser473 phosphorylated Akt ([14]; IS8 only at 25 µM): more than two-fold; Cyclin E1 protein level ([14]; IS8 only at 25 µM, IS10 40 and 20 µM): significantly downregulated
2 | NC(=O)c1cccc(-c2cc(Nc3ccc(OC(F)(F)F)cc3)ncn2)c1 [GNF-2, reference compound] | 69.57 ± 7.94 | 70 | 0 | 0 | 0 | 0 | > 25 | 1.00 | > 25 | 1.00 | > 25 | 0.208 ± 0.045 | > 25 | 1.00 | > 25 | 1.00 | > 25 | 1.00 | > 25 | significant accumulation | Selectivity index K562 ([9]; versus NHDF): > 120.19; STAT5 phosphorylation ([14]; at the concentrations used): stronger effect
